Values joined by “and” are separate entries in the source; they are usually repeats but may differ in a detail not shown here. Equal values may be shown once.
Target: GTPase HRas (Homo sapiens) (UniProt P01112)
Assay: activated Ras mutant GTP binding inhibitors, dose response, biochemical, multiplex bead flow cytometry (AID 1341);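 note: GST-tagged constitutively activated Ras mutant immobilized on beads and multiplexed with other GTPases; potency for blocking fluorescent GTP binding to Ras so compounds act as competitors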
Conditions: bead-based flow cytometry, Bodipy-FL-GTP binding;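 active = dose-response curve with midpoint inside the tested range, moderate steepness, significant amplitude and little compound fluorescence or bead-attachment interference; inactive = the rest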

EC50, active:
Cc1cc(NC(=O)CSc2nc(-c3ccccc3)c(C#N)c(=O)[nH]2)no1 11000 nM, CC1(C)Cc2c(sc(NC(=S)NC(=O)c3ccccc3)c2C(=O)O)CO1 144 nM and 145 nM, CC(C)Cc1csc(NC(=O)c2ccccc2Cl)c1C(=O)O 634 nM, COc1ccc(C(=O)c2c(O)cc(-c3ccc(OC)cc3)oc2=O)cc1 5960 nM, Cc1ccc(C)c(OCCn2cc(C(=O)O)c3ccccc32)c1 195 nM, CC(=O)c1c(C)[nH]c(C(=O)N2CCc3ccccc3C2)c1C 2460 nM, N#Cc1c(-c2ccccc2)nc(SCC(=O)Nc2ccccc2)[nH]c1=O 1970 nM, Cc1cc(C(=O)O)sc1CNCc1ccccc1Cl 430 nM

— PubChem BioAssay AID1341 (NMMLSC, 2008)
